# Test results taken from US11249094B2, “Astrocyte traumatome and neurotrauma biomarkers” (THE REGENTS OF THE UNIVERSITY OF CALIFORNIA, priority 2015, dated 2022).
# Test system: Trauma-released GFAP upper and lower BDPs
# Assay: GFAP breakdown products in conditioned medium of severely stretched astrocyte cultures with protease inhibitors (immunoblot)
# Type: cell-based, human
# Settings: 48 hour post-injury, DAKO anti-GFAP polyclonal antibody immunoblot
# Experimental: Human astrocytes were isolated from 16-18 week donated fetal neocortical brain specimen, purified and then differentiated on deformable membranes (Wanner, 2012). Cell membrane wounding/compromise, mechanoporation (Barbee, 2005), was determined using Propidium iodide (PI) uptake in living cultures accompanied by nuclear shape assessment (middle picture, stained nuclei, Hoechst stained after fixation, with little pink dots, nucleoli that are PI-stained). Cell death was determined by PI uptake accompanied by condensed nuclei (pyknotic nuclei with compacted chromatin and bright Hoechst and PI stains). Significant percent of cell integrity compromise is shown 30 min post-injury (left graph) while significant cell death was present two days post-injury (bars on the right).
# In order to capture the full range of signal intensity, signals from multiple exposures of immunoblots were densitometrically measured (optical densities) and scaled to match a single exposure.
# Shown in FIG. 25 are two film exposures of GFAP, upper and lower breakdown products 48 hour post-injury in conditioned medium samples using the DAKO anti-GFAP polyclonal antibody. Severely stretched and unstretched cultures received either no drug, calpain inhibitor PD150606 (100 μM, “Cali”) or pan-caspase inhibitor Z-VAD FMK (8.8 μM, “Casi”). […]
Compound,Trauma-released GFAP upper and lower BDPs in conditioned medium (100 μM),Trauma-released GFAP upper and lower BDPs in conditioned medium (8.8 μM)
O=C(O)/C(S)=C/c1ccc(I)cc1 [PD150606],reduced,–
Z-VAD FMK,–,reduced
